{"source": "patent US20030203963A1", "about": "“Antimicrobial agent” (priority 2001, published 2003)", "key": {"L. monocytogenes 272": {"test_system": "L. monocytogenes 272", "test": "Test in cooked sausage meat slurry", "assay_type": "cell-based, Listeria monocytogenes", "source_text": "500 g of bologna sausage meat mixture was mixed with 500 g Brain Heart Infusion broth (BHIB) to make a homogeneous slurry. The bologna sausage meat mix comprised (g per kg): lean beef 320; lean pork 202; lard 250; water 40; glucose 5; starch 155; spice mix 3.75; sodium glutamate 0.5; sodium erythorbate 0.545; sodium di-phosphate 3; NaCl 20; sodium nitrite 0.15. 200 g samples of the meat slurry were autoclaved. While the meat was still warm it was re-mixed thoroughly. When the meat had cooled it was inoculated with 2 ml of 10^5 cfu/ml spore or cell suspension, and re-mixed again. Each inoculated meat sample was divided into 3×50 g samples, and 1 ml of either SDW, 2.5% or 5% APP solution (batch number APP 20010215) was added to prepare meat samples containing 0, 500 and 1000 ppm APP. The meat slurry was again shaken thoroughly to ensure even mixing, an initial viable count was taken and the samples incubated at 8° C. Samples were taken at twice-weekly intervals. The pH of the sausage meat slurry was 6.2."}, "Ent. aerogenes 10102": {"test_system": "Ent. aerogenes 10102", "test": "Bioscreen growth inhibition test", "assay_type": "cell-based, Enterobacter aerogenes", "settings": "BS010510, 24 h/30, APP20010213", "procedure": "(§1) For broth cultures and Bioscreen testing most bacteria were grown in Brain Heart Infusion (BHI, Oxoid, pH 7.4). Lactobacillus sake A10 was grown in de Man, Rogosa, Sharpe medium ([…], Oxoid). Yeasts were grown in Sabouraud Liquid medium (SLM, Oxoid). Most bacteria were cultured at 30° C. Lactic acid bacteria were grown on solid medium in enriched CO2 atmosphere. Clostridium species were grown in Reinforced Clostridial Medium (RCM) at 37° C. anaerobically. Brochothrix thermosphacta fungi and yeasts were grown at 25° C. Fungi were cultured on Malt Extract Agar (MEA, Oxoid).\n(§2) An automated Microbiology Reader Bioscreen C was used to measure growth curves of the strains in the presence and absence of APP. The Bioscreen C measures the development of turbidity (i.e. growth) kinetically by vertical photometry in 200 wells of a honeycomb microtitre plate, simultaneously. The system consists of a Bioscreen C analyser, which is an incubator and measurement unit, integrated with a PC, software (BioLink v 5.30), printer and a ‘Honeycomb 2’ cuvette multiwell plate. Growth curve data can be analysed within the BioLink software or exported to programs such as Excel.\n(§3) Broth culture media were dispensed in 270 μl volumes into the wells as directed. […] (depending on the micro-organism under investigation) with readings taken every 20 minutes after the trays were shaken. […]"}, "B. cereus 204": {"test_system": "B. cereus 204", "test": "Chicken soup trial at 8° C.", "assay_type": "cell-based, Bacillus cereus", "settings": "chicken soup at 8° C.", "source_text": "A local supermarket brand of cream of chicken soup was used as a model food system. 600 g packs were purchased from the local supermarket. This was a ‘fresh home-made type’ of soup that was stored in the chill cabinet, with a short shelf life. It was chosen because it is a rich, nutritious food system containing a range of food components including meat, dairy and vegetable.\nIngredients were labelled as: chicken stock (water, duck fat, chicken, salt, flavourings, yeast extracts, pork gelatine, glucose syrup, vegetable concentrate, milk protein, sugar, malto-dextrin, vegetable oil, citric acid, lactose, chicken fat), ilk, chicken (9%), cream (8%), onion, potato, vegetable oil, modified maize starch, wheat flour, lemon juice, salt, white pepper. pH 5.912. Protein: 3.3%; carbohydrate: 4.7%; fat: 7.2%; fibre: 0.2%; sodium: 0.1%\nFor the test the soup was mixed 2:1 in water (to facilitate sampling and mixing) and sterilised by autoclaving at 121° C. for 15 minutes. For each experiment the pH of the soup was recorded; this was between pH 5.79-5.88.\nFor TCS010412/8 (which was incubated at 8° C.), APP batch number APP20010213 (concentration 169 mg APP/ml) was used to prepare tests containing 0, 2000 or 4000 ppm APP. 5 g of filter-sterilised APP stock solution was added to 94 g of soup, mixed and then 1 ml of a diluted inoculum suspension (cells or spores as appropriate) was added to give a test inoculum level of 10^3 cfu/g. The soup mixture was shaken vigorously to ensure homogeneous distribution of the APP and micro-organisms. The tests were tested by viable count and then incubated at 8° C. and tested on a twice-weekly basis.\nFor TCS010521/8 (incubated at 8° C.), samples were prepared in 27.8 g quantities. 1.5 g of an APP stock solution was added, and the tests inoculated with 0.3 ml of a suitably diluted cell or spore suspension to give a final inoculum of ca. 10^3 cfu/g. APP was tested at 0, 500 and 1000 ppm, and batch number APP20010213 (at 169 mg/ml) was used. The tests were sampled by viable count and then incubated at 8° C. and tested on a twice-weekly basis."}, "Br. thermosphacta": {"test_system": "Br. thermosphacta", "test": "Test in milk", "assay_type": "cell-based, Brochothrix thermosphacta", "settings": "2000 ppm, TMGB010605", "procedure": "(§4) 8.9 ml samples of UHT milk containing 0.5% glucose and the indicator bromocresol purple (0.01%) were prepared and sterilised by autoclaving. The pH before APP addition was pH 6.65. Appropriate stock solutions of APP batch number APP20010215 (at 138 mg/ml) were prepared and filter sterilised. 1 ml of each was added to the milk to prepare tests containing 0, 1000 and 2000 ppm APP. Tests were then inoculated with 100 μl of diluted overnight broth cultures or spore suspensions to give a final inoculum level of ca. 10^3 cfu/ml. These and uninoculated tests were incubated at 20 and 8° C. and examined daily for visible changes compared to uninoculated control."}, "Ps. fluorescens": {"test_system": "Ps. fluorescens", "test": "Test in milk", "assay_type": "cell-based, Pseudomonas fluorescens", "settings": "for Control for: 2000 ppm, TMGB010605", "procedure": "as §4"}, "B. subtilis Campden": {"test_system": "B. subtilis Campden", "test": "Bioscreen growth inhibition test", "assay_type": "cell-based, Bacillus subtilis", "settings": "BS010510, 24 h at 30° C., APP20010213", "procedure": "as §1, §2, §3"}}}
{"smiles": "O=C1CC(CO)OC=C1O", "note": "(stereo not drawn) [APP, Ascopyrone P]", "values": [{"measurement": "10^6 reached at", "setting": "L. monocytogenes 272; 1000 ppm, cooked sausage meat slurry at 8° C., TSM010605, controls 7 d", "value": 7, "unit": "d"}, {"measurement": "Effect on growth", "setting": "L. monocytogenes 272; 1000 ppm, cooked sausage meat slurry at 8° C., pH 6.2, TSM010605", "value": "No total inhibition"}, {"measurement": "Partial inhibition (effect on growth of target organism by APP)", "setting": "L. monocytogenes 272; Cooked sausage meat slurry at 8° C. pH 6.2, (1000)", "value": "L. monocytog."}, {"measurement": "APP level causing total inhibition", "setting": "Ent. aerogenes 10102", "value": 4000, "unit": "ppm"}, {"measurement": "Counts / spore kill", "setting": "B. cereus 204; 500 and 1000 ppm, TCSM010521, APP215", "value": "Counts remain at approx initial level, i.e. no spore kill."}, {"measurement": "Total inhibition for", "setting": "B. cereus 204; 500 ppm, TCSM010521, APP215", "value": "Total inhibition by 500 and 1000 ppm for >27 days."}, {"measurement": "Total inhibition for", "setting": "B. cereus 204; 1000 ppm, TCSM010521, APP215", "value": "Total inhibition by 500 and 1000 ppm for >27 days."}, {"measurement": "Counts / spore kill", "setting": "B. cereus 204; 2000 and 4000 ppm, TCS010412, APP20010213", "value": "Counts remain at initial level, i.e. no spore kill."}, {"measurement": "Total inhibition for", "setting": "B. cereus 204; 2000 ppm, TCS010412, APP20010213", "value": "Total inhibition by 2000 and 4000 ppm for >60 days."}, {"measurement": "Total inhibition for", "setting": "B. cereus 204; 4000 ppm, TCS010412, APP20010213", "value": "Total inhibition by 2000 and 4000 ppm for >60 days."}, {"measurement": "Control for", "setting": "Br. thermosphacta; milk at 8° C.", "value": 1, "unit": "days"}, {"measurement": "Control of growth", "setting": "Br. thermosphacta; milk at 20° C.", "value": "No control observed"}, {"measurement": "Control for", "setting": "Ps. fluorescens; milk at 8° C.", "value": "> 7", "unit": "days"}, {"measurement": "Control for", "setting": "Ps. fluorescens; milk at 20° C.", "value": "2 to 3", "unit": "days"}, {"measurement": "Total inhibition (effect on growth of target organism by 2000 ppm APP)", "setting": "Ps. fluorescens; Milk at 8° C. pH 6.65", "value": "Ps. fluorescens"}, {"measurement": "Partial inhibition (effect on growth of target organism by 2000 ppm APP)", "setting": "Ps. fluorescens; Milk at 20° C. pH 6.65", "value": "Ps. fluorescens"}, {"measurement": "APP level causing significant inhibition", "setting": "B. subtilis Campden", "value": 2000, "unit": "ppm"}, {"measurement": "APP level causing total inhibition", "setting": "B. subtilis Campden", "value": 3000, "unit": "ppm"}]}
